Results from patent publication US10407388B2, “Thiourea derivatives as activators of RORα and pharmaceutical composition containing same” (SEOUL NATIONAL UNIVERSITY R & DB FOUNDATION, priority 2011, dated 2019).

Legend:
HMGCS2 = assay: Fatty acid oxidation gene HMGCS2 in HepG2 cells, real-time RT-PCR; format: cell-based, human; details: 100 μM, 24 hours; FIG. 8
Procedure: (§1) HepG2 cells (1×10^6 cells/well) were seeded on a 60-dish and cultured overnight in a DMEM containing 10% FBS. The HepG2 cells were maintained at 37° C. in a humidification thermostat containing 5% CO2 and 95% air. After culturing, the HepG2 cells were treated with JC1-38, JC1-40, and JC1-42 at a concentration of 100 μM for 24 hours. After treatment, effects thereof on transcriptional activity were analyzed by real-time reverse transcriptase-polymerase chain reaction (real-time RT-PCR) analysis. The PCR was performed using the following primers respectively specific to MCAD, ACO1, ACO2, HMGCS2, CPT-1, and ACS, which are involved in fatty acid oxidation: […]

ACO2 = assay: Fatty acid oxidation gene ACO2 in HepG2 cells, real-time RT-PCR; format: cell-based, human; details: 100 μM, 24 hours; FIG. 8
Procedure: as §1

MTTP = assay: VLDL secretion gene MTTP in HepG2 cells, RT-PCR; format: cell-based, human; details: 100 μM, 24 hours; FIG. 9b
Procedure: as §1, with “60-dish,” for “60-dish”, “RT-PCR” for “real-time reverse transcriptase-polymerase chain reaction (real-time RT-PCR)”, “CD36 (see FIG. 9a) involved in fatty acid uptake” for “MCAD, ACO1, ACO2, HMGCS2, CPT-1,”, “MTTP and ApoB100 (see FIG. 9b),” for “ACS,”, “the secretion of very low density lipoproteins:” for “fatty acid oxidation:”

LXRα [1] = assay: Expression of LXRα protein in HepG2 cells, western blotting; format: cell-based, human; details: for expression of LXRα protein: 100 μM, 24 hours, FIG. 6a
Procedure: (§2) HepG2 cells (1×10^6 cells/well) were seeded on a 60-dish and cultured overnight in a DMEM containing 10% FBS. The HepG2 cells were maintained at 37° C. in a humidification thermostat containing 5% CO2 and 95% air. After culturing, the HepG2 cells were treated with each of the JC1-38, JC1-40, and JC1-42 compounds at a concentration of 100 μM, and, as a positive control, the HepG2 cells were treated with 2 mM metformin, which is an AMPK activator, for 24 hours. After treatment, the expression of proteins was analyzed by western blotting analysis. That is, after treatment, the HepG2 cells were destroyed on ice in a lysis buffer containing 50 mM NaCl, 50 mM Tris pH 7.4, 5 mM EDTA, 1% NP-40, and a protease inhibitor for 30 minutes, and then centrifuged to obtain a total cell lysate. 20 μg to 30 μg of proteins collected from the total cell lysate was subjected to 7% to 9% sodium dodecyl sulfate-polyacrylamide gel electrophoresis (SDS-PAGE), and was transferred to a polyvinylidene difluoride membrane (Millipore, Bedford, Mass., USA). The resulting product was subjected to blocking with 5% or 10% (w/v) nonfat dry milk in PBS containing 0.1% Tween-20, and was reacted with antibodies specific to RORα (Affinity BioReagents), LXRα, SREBP-1, FAS (Santa Cruz Biotechnology), phospho-ACC (Cell signaling), and α-tubulin (Calbiochem). Immunoreactive proteins were detected with Amersham ECL western blotting detection reagents using a horseradish peroxidase (HRP)-conjugated secondary antibody (Zymed Lab). Protein concentrations were quantified by bicinchoninic acid (BCA) (Pierce) analysis, and the expression of α-tubulin was monitored as a control. The results thereof are illustrated in FIG. 6a.
(§3) In addition, HepG2 cells were cultured under the same conditions, and then the HepG2 cells were treated with particular concentrations (0 μM, 1 μM, 10 μM, 50 μM, and 100 μM) of JC1-40 (or JC1-42) and 1 μM T17 for 24 hours. After treatment, the expression of proteins was analyzed by western blotting analysis, and the expression of α-tubulin was monitored as a control. The results thereof are illustrated in FIGS. 6b and 6c.

LXRα [2] = assay: Transcriptional activity of LXRα, LXRE-Luc reporter in HepG2 cells treated with T17; format: cell-based, human; details: 1 μM, 10 μM, 20 μM, 50 μM, and 100 μM with 1 μM T17, 24 hours; FIG. 5a
Procedure: A human hepatoma cell line and HepG2 (ATCC HB 8065) were purchased from ATCC. HepG2 cells (1.2×10^5 cells/well) were seeded on a 24-well culture plate and cultured overnight in a DMEM containing 10% FBS. The HepG2 cells were maintained at 37° C. in a humidification thermostat containing 5% CO2 and 95% air. After culturing, the HepG2 cells were transformed with LXRE-Luc reporter (0.1 μg) using Welfect-EXTM Plus (WelGENE Inc., Korea). 24 hours after transformation, the HepG2 cells were treated with particular concentrations (1 μM, 10 μM, 20 μM, 50 μM, and 100 μM) of JC1-38, JC1-40, and JC1-42 and 1 μM T17 (T0901317), which is a ligand of LXRα, for 24 hours. Subsequently, cell lysates were collected, and luciferase activity was analyzed and determined using an analytical luminescence luminometer. The luciferase activity was standardized by β-gal activity to determine transcriptional activity, and data was attained as the mean and SD for two or three independent experimental results, and the results thereof are illustrated in FIG. 5a.

[3] = Chemical stability of JC1 compounds; format: physicochemical
SREBP-1 = assay: Expression of SREBP-1 protein in HepG2 cells, western blotting; format: cell-based, human; details: for expression of SREBP-1, which had been increased by T17: 0, 1, 10, 50, 100 μM with 1 μM T17, 24 hours, FIGS. 6b and 6c; for expression of proteins (LXRα, SREBP-1, FAS of FIGS. 6b and 6c): 50 μM to 100 μM with 1 μM T17, 24 hours; for expression of SREBP-1 protein: 100 μM, 24 hours, FIG. 6a
Procedure: as §2, §3

ACS = assay: Fatty acid oxidation gene ACS in HepG2 cells, real-time RT-PCR; format: cell-based, human; details: 100 μM, 24 hours; FIG. 8
Procedure: as §1

ApoB100 = assay: VLDL secretion gene ApoB100 in HepG2 cells, RT-PCR; format: cell-based, human; details: 100 μM, 24 hours; FIG. 9b
Procedure: as §1, with “60-dish,” for “60-dish”, “RT-PCR” for “real-time reverse transcriptase-polymerase chain reaction (real-time RT-PCR)”, “CD36 (see FIG. 9a) involved in fatty acid uptake” for “MCAD, ACO1, ACO2, HMGCS2, CPT-1,”, “MTTP and ApoB100 (see FIG. 9b),” for “ACS,”, “the secretion of very low density lipoproteins:” for “fatty acid oxidation:”

chemical stability [3]	Compound	transcriptional activity of HMGCS2 (HMGCS2)	transcriptional activity of ACO2 (ACO2)	transcriptional activity of MTTP (MTTP)	expression of LXRα, which had been increased by T17 (LXRα [1]; 0, 1, 10, 50, 100 μM with 1 μM T17, 24 hours, FIG. 6c)	expression of LXRα protein (LXRα [1])	transcriptional activity of LXRα, which had been increased by T17 (LXRα [2])	expression of SREBP-1, which had been increased by T17 (SREBP-1)	expression of proteins (LXRα, SREBP-1, FAS of FIGS. 6b and 6c) (SREBP-1)	expression of SREBP-1 protein (SREBP-1)	transcriptional activity of ACS (ACS)	transcriptional activity of ApoB100 (ApoB100)
highly chemically stable	CNC(=S)NCc1ccc(Oc2ccccc2)cc1 [Compound 42, 1-(4-phenoxy-benzyl)-3-methyl-thiourea]	increased	increased	increased	decreased in a manner dependent on the concentration	decreased	decreased in a manner dependent on the concentration	decreased in a manner dependent on the concentration	strongly inhibited	decreased	increased	increased
highly chemically stable	CNC(=S)NCc1ccc(OCc2ccccc2)cc1 [Compound 40, 1-(4-benzyloxy-benzyl)-3-methyl-thiourea]	increased	increased	increased		decreased	decreased in a manner dependent on the concentration	decreased in a manner dependent on the concentration	strongly inhibited	decreased	increased	increased

Compound	chemical stability [3]	transcriptional activity of HMGCS2 (HMGCS2)	transcriptional activity of ACO2 (ACO2)	transcriptional activity of MTTP (MTTP)	expression of LXRα, which had been increased by T17 (LXRα [1]; 0, 1, 10, 50, 100 μM with 1 μM T17, 24 hours, FIG. 6c)	expression of LXRα protein (LXRα [1])	transcriptional activity of LXRα, which had been increased by T17 (LXRα [2])	expression of SREBP-1, which had been increased by T17 (SREBP-1)	expression of proteins (LXRα, SREBP-1, FAS of FIGS. 6b and 6c) (SREBP-1)	expression of SREBP-1 protein (SREBP-1)	transcriptional activity of ACS (ACS)	transcriptional activity of ApoB100 (ApoB100)
CNC(=S)NCc1ccccc1-c1ccncc1 [Compound 38, 1-methyl-3-(4-pyridinyl-2-benzyl)-thiourea]	highly chemically stable	increased	increased	increased		decreased	decreased in a manner dependent on the concentration			decreased	increased	increased
